Several values for one entry are separate records, joined by “and”; a condition that tells them apart may be missing. Identical values can stand only once.
Assays:
[1] = test system: HLM; assay: Enzyme kinetics of hydroxylated metabolites formation; format: in vitro ADME, human
Experimental: The reactions were carried out in duplicate at each time point. Incubation conditions used for the determination of K M and V max were optimized for linearity with respect to time and protein concentrations. […] Metabolites were analyzed by LC‐MS/MS as described below. The K M and V max values of each marker substrate were determined using nonlinear least squares regression analysis in GraFit software (version 3.0, Erithacus Software Limited) and SigmaPlot Enzyme Kinetics Module for Windows 7.0 (SPSS, Inc). […]

[2] = target: T1, CYP2C19 (Homo sapiens, UniProt P33261); assay: Intrinsic clearance, substrate depletion approach; conditions: rCYP2C19, substrate depletion
T1 sequence (P33261 whole entry): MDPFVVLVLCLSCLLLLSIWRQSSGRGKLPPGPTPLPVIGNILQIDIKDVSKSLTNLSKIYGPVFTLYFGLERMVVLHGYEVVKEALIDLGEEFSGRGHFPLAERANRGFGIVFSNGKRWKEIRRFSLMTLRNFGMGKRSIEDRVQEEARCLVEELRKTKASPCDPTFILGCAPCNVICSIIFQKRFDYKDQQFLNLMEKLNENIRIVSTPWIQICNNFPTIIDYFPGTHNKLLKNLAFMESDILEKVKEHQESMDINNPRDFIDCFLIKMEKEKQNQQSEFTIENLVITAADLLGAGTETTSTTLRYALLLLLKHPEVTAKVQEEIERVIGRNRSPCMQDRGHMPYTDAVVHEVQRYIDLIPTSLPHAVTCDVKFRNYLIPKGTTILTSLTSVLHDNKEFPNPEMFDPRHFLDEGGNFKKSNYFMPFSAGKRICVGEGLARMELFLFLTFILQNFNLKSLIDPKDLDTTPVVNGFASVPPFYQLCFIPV

[3] = target: T2, CYP1A2 (Homo sapiens, UniProt P05177); assay: in vitro; conditions: recombinant CYP1A2, pH 7.4
T2 sequence (P05177 1-516): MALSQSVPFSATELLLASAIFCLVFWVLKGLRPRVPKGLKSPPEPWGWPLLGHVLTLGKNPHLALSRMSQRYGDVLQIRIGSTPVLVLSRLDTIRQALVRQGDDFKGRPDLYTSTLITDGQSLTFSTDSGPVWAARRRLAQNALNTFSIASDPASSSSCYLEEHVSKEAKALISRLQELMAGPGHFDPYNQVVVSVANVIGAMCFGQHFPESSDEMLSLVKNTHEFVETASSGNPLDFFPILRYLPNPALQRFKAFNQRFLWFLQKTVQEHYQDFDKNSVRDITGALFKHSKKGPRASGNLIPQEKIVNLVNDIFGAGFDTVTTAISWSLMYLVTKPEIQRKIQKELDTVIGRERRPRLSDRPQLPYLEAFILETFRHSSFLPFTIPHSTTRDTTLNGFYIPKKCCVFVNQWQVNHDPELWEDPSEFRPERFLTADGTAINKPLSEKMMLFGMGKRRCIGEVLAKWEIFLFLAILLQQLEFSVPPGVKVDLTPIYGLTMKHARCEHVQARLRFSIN

[4] = test system: CYP3A4/5; assay: CYP selective diagnostic inhibition studies in HLM, ketoconazole; format: in vitro ADME, human; conditions: ketoconazole 10 µmol/L
Experimental: (§1) Reactions were carried out in triplicate in 96 well plates. Each reaction was measured at 2 time points, that is at 0 and 30 minutes. […] Furafylline, KTZ, ticlopidine, and quinidine were used as diagnostic inhibitors for CYP 1A2, 3A4/5, 2C19 and 2D6, respectively. The reactions were initiated by addition of NADPH after a pre‐incubation of 5 minutes at 37°C. All reactions were terminated by the addition of 150 µL ice‐cold ACN. Internal standard (0.2 µmol/L DPZ) was added to ACN prior to termination of the assay. This was followed by centrifugation at 4500 g for 20 minutes. An aliquot (50 µL) supernatant was collected and 5 µL was injected and analyzed by liquid chromatography/tandem mass spectrometry (LC/MS/MS). The percent effect of each inhibitor was the estimated contribution of the inhibited CYP calculated using the relationship below: %contribution=amount remaining with inhibitor‐amount remaining without inhibitor/amount remaining without inhibitor×100.

[5] = test system: CYP2D6; assay: CYP selective diagnostic inhibition studies in HLM, quinidine; format: in vitro ADME, human; conditions: quinidine 10 µmol/L
Experimental: as §1

[6] = test system: CYP1A2; assay: CYP selective diagnostic inhibition studies in HLM, furafylline; format: in vitro ADME, human; conditions: furafylline 10 µmol/L
Experimental: as §1

[7] = target: T3, CYP2D6 (Homo sapiens, UniProt P10635); assay: Intrinsic clearance, substrate depletion approach; conditions: rCYP2D6, substrate depletion
T3 sequence (P10635 whole entry): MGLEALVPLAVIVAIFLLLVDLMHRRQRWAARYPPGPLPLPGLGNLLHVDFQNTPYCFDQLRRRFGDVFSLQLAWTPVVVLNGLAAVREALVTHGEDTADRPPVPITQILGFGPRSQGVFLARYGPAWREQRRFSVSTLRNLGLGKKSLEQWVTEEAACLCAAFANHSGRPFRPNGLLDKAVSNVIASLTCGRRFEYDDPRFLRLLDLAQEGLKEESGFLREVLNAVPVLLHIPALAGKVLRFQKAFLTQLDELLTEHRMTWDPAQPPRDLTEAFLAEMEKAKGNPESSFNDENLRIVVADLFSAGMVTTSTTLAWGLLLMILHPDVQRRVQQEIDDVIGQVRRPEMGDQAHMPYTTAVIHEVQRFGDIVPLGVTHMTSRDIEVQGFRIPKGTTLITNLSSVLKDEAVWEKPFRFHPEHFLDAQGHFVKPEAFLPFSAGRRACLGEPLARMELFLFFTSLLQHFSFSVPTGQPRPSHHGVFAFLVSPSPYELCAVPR

[8] = target: T1, CYP2C19; assay: in vitro; conditions: recombinant CYP2C19, pH 7.4
[9] = target: T2, CYP1A2; assay: Intrinsic clearance, substrate depletion approach; conditions: for Predicted CLH / Predicted CLuH,int: rCYP1A2, substrate depletion
[10] = target: T3, CYP2D6; assay: in vitro; conditions: recombinant CYP2D6, pH 7.4
[11] = target: T1, CYP2C19; assay: Qualitative substrate disappearance assay; format: in vitro ADME; set-up: purchased CYPEX CYP008; host or cells: Escherichia coli; conditions: 20 pmols rCYP, 1.0 µmol/L substrate, 30 minutes
Experimental: All reactions were performed in triplicate in 96‐well plates. […] The substrate was diluted to 40% ACN so that the percent organic component in the final solution was maintained at 1%. […] The reactions were initiated by addition of NADPH after a pre‐incubation of 5 minutes at 37°C. All reactions were terminated by the addition of 150 µL of ice‐cold ACN at either 0 minute (control) or 30 minutes (reaction). This was followed by centrifugation at 4500 g for 20 minutes. An aliquot (50 µL) supernatant was collected and 5 µL was injected and analyzed by liquid chromatography/tandem mass spectrometry (LC/MS/MS). Metabolism was signified qualitatively by loss of substrate from the media using the relationship: %remaining compound=[…]Peak area atT30min/Peak area atT0min×100.

[12] = Intrinsic clearance, substrate depletion approach; format: in vitro ADME, human; conditions: human, human liver microsomes, pH 7.4; HLM, 1 µmol/L substrate
Experimental: (§2) The generic conditions were previously described by Masimirembwa and co‐workers. ^24 , ^25 Each reaction mixture consisted of substrate incubated with appropriate enzyme, substrate, and NADPH in potassium phosphate buffer pH 7.4 in a final volume of 200 µL. The substrate was diluted to 40% ACN so that the percent organic component in the final solution was maintained at 1%. The reactions were quenched with 3 volumes of stop solution containing ACN and 0.8% formic acid at 0, 5, 10, 20, 30, 40, and 60 minutes. This was followed by centrifugation at 4500 g for 20 minutes. An aliquot (50 µL) supernatant was collected and diluted (1:1) in water prior to LC‐MS/MS analysis.
(§3) Each reaction was monitored over 7 time points.
(§4) The well‐stirred model was used to estimate the hepatic clearance (CLH) due to metabolism.

[13] = test system: HLM; assay: Intrinsic clearance, substrate depletion approach; format: in vitro ADME, human; conditions: substrate depletion; for Predicted CLuH,int / Predicted CLH: HLM; for Predicted CLH: well‐stirred model
Experimental: as §2, §3, §4

[14] = test system: CYP2C19; assay: CYP selective diagnostic inhibition studies in HLM, ticlopidine; format: in vitro ADME, human; conditions: ticlopidine 10 µmol/L
Experimental: as §1

Row | K M [SD] ([1]; formation of X‐OH‐PZQ) | K M [SD] ([1]; formation of cis‐4‐OH‐PZQ) | V max [SD] ([1]; formation of cis‐4‐OH‐PZQ) | Predicted CLH [2] [mL/min/kg] | Predicted CLuH,int [2] [mL/min/kg] | half-life at 1 µmol/L [3] [min] | Contribution of CYP3A4/5 [4] [%] | Contribution of CYP2D6 [5] [%] | Contribution of CYP1A2 [6] [%] | Predicted CLH [7] [mL/min/kg] | Predicted CLuH,int [7] [mL/min/kg] | half-life at 1 µmol/L [8] [min] | Predicted CLH [9] [mL/min/kg] | Predicted CLuH,int [9] [mL/min/kg] | half-life at 1 µmol/L [10] [min] | Depletion of substrate by CYP2C19 [11] | half-life at 1 µmol/L [12] [min] | Predicted CLuH,int [13] [mL/min/kg] | Predicted CLH [13] [mL/min/kg] | Compound | V max [SD] ([1]; formation of X‐OH‐PZQ) | also measured
1 | 29.30 [4.020] µmol/L | 38.90 [5.469] µmol/L | 0.7572 [0.0447] nmol/min/mg protein | 3.904 | 19.73 | 7.54 | 33 | 51 | 61 | 0.2132 | 0.860 | 3.6 | 5.071 | 27.80 | 34.7 | complete depletion | 11.5 | 172.0 | 13.06 | O=C(C1CCCCC1)N1CC(=O)N2CCc3ccccc3[C@@H]2C1 [R‐PZQ, R‐Praziquantel] | 1.2 nmol/min/mg protein and 1.200 [0.06266] nmol/min/mg protein | Clearance class, CYP1A2‐mediated ([9]; substrate depletion): high; Clearance by CYP1A2, R‐PZQ compared to S‐PZQ ([9]; substrate depletion, times faster): 2 times; Clearance class, HLM‐mediated [13]: high; Contribution of CYP2C19 [14]: 64%
2 | 61.00 [22.12] µmol/L | 44.30 [12.06] µmol/L | 0.2700 [0.02999] nmol/min/mg protein | 5.600 | 30.71 | 16 | 131 | 54 | 27 | 0.1712 | 0.660 | 4.13 | 2.877 | 13.07 | 45.3 | complete depletion | 29.5 | 97.50 | 10.78 | O=C(C1CCCCC1)N1CC(=O)N2CCc3ccccc3[C@H]2C1 [S‐PZQ, S‐Praziquantel] | 6.3 nmol/min/mg protein and 6.300 [1.102] nmol/min/mg protein | Contribution of CYP2C19 [14]: 117%
